# Laboratory results reported in publication PMC10287566, “Signaling-specific inhibition of the CB1 receptor for cannabis use disorder: phase 1 and phase 2a randomized trials” (Nature Medicine, 2023).
# How the values were obtained:
# Experiment in all cases: Eurofins binding screen
# Opioid delta2 (DOP) = Opioid delta2 (DOP) (Homo sapiens, UniProt P41143)
# Neurokinin NK3 = Neurokinin NK3 (Homo sapiens, UniProt P29371)
# Endothelin ETB = Endothelin ETB (Homo sapiens, UniProt P24530)
# Adrenergic alpha2 = conditions: 10 µM
# Neuropeptide Y Y1 = Neuropeptide Y Y1 (Homo sapiens, UniProt P25929)
# Glutamate PCP = conditions: 10 µM
# Dopamine transporter DAT = Dopamine transporter DAT (Homo sapiens, UniProt Q01959)
# Serotonin 5-HT2A = Serotonin 5-HT2A (Homo sapiens, UniProt P28223)
# Neurotensin NTS1 (NT1) = Neurotensin NTS1 (NT1) (Homo sapiens, UniProt P30989)
# Sequence of Neurotensin NTS1 (NT1) (P30989 whole entry): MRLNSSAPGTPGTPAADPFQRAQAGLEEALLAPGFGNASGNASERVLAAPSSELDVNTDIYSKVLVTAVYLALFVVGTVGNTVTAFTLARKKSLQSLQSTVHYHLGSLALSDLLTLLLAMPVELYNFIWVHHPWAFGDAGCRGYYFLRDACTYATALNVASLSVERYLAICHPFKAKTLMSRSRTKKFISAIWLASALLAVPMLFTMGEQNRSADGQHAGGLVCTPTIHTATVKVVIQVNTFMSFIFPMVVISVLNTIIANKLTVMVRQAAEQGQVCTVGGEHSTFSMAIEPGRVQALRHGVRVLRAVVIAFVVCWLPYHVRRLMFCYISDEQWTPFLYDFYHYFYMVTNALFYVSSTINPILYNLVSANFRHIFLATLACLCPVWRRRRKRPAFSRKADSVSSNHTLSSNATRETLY
# Prostanoid EP2 = Prostanoid EP2 (Homo sapiens, UniProt P43116)
# Sequence of Prostanoid EP2 (P43116 whole entry): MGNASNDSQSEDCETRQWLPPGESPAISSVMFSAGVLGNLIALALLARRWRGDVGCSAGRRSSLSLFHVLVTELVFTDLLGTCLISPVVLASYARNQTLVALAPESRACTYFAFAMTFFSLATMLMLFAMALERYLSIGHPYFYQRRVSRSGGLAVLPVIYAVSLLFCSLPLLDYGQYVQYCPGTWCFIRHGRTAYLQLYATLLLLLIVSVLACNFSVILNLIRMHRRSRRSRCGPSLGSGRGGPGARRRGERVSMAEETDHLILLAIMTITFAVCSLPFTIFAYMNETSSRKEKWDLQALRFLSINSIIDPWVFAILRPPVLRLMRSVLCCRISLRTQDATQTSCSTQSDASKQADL
# Purinergic channels P2X = conditions: 10 µM
# Dopamine D4.4 = Dopamine D4.4 (Homo sapiens, UniProt P21917)
# Sequence of Dopamine D4.4 (P21917 whole entry): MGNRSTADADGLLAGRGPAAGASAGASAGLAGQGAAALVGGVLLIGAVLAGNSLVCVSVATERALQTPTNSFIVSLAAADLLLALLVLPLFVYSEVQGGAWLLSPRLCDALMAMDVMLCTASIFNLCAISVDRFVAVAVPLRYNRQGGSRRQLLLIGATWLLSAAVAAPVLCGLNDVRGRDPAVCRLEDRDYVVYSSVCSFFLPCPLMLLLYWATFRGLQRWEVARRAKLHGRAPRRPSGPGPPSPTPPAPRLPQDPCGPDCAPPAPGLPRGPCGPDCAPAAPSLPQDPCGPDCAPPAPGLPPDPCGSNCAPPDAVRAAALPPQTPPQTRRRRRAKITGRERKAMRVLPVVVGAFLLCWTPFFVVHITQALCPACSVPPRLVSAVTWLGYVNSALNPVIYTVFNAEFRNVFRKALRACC
# Neuropeptide Y Y2 = Neuropeptide Y Y2 (Homo sapiens, UniProt P49146)
# Serotonin 5-HT6 = Serotonin 5-HT6 (Homo sapiens, UniProt P50406)
# Galanin GAL2 = Galanin GAL2 (Homo sapiens, UniProt O43603)
# PXR = PXR (Homo sapiens, UniProt O75469)
# Adenosine A2A = Adenosine A2A (Homo sapiens, UniProt P29274)
# Somatostatin sst = conditions: 10 µM
# Muscarinic M3 = Muscarinic M3 (Homo sapiens, UniProt P20309)
# Muscarinic M5 = Muscarinic M5 (Homo sapiens, UniProt P08912)
# Muscarinic M1 = Muscarinic M1 (Homo sapiens, UniProt P11229)
# Sequence of Muscarinic M1 (P11229 whole entry): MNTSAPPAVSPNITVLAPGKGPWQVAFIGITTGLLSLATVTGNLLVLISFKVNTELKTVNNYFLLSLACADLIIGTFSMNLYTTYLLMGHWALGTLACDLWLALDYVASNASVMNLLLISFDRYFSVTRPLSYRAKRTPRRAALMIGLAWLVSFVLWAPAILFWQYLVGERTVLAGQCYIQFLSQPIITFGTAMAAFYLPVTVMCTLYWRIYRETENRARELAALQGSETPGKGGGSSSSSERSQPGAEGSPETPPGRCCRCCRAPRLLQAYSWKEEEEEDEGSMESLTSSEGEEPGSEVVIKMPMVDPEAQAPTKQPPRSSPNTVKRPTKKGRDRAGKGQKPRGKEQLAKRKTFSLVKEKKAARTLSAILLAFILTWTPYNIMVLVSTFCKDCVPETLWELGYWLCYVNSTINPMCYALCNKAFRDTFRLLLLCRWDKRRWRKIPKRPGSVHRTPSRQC
# [1] = target: Calcitonin gene-related peptide CGRP (Homo sapiens, UniProt O60894+Q16602)
# PPAR gamma = PPAR gamma (Homo sapiens, UniProt P37231)
# Prostanoid IP (PGI2) = Prostanoid IP (PGI2) (Homo sapiens, UniProt P43119)
# Sequence of Prostanoid IP (PGI2) (P43119 whole entry): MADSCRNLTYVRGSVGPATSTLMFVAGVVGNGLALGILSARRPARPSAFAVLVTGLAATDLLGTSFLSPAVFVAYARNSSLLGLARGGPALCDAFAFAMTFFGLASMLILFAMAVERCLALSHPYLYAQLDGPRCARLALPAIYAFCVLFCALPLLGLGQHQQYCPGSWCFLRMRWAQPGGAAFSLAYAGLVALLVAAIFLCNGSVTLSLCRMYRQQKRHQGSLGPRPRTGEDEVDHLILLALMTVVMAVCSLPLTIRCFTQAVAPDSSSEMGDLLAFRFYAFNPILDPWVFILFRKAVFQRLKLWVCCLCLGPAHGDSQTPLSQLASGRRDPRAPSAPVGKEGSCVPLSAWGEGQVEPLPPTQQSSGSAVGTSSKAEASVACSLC
# Angiotensin-II AT2 = Angiotensin-II AT2 (Homo sapiens, UniProt P50052)
# Sequence of Angiotensin-II AT2 (P50052 whole entry): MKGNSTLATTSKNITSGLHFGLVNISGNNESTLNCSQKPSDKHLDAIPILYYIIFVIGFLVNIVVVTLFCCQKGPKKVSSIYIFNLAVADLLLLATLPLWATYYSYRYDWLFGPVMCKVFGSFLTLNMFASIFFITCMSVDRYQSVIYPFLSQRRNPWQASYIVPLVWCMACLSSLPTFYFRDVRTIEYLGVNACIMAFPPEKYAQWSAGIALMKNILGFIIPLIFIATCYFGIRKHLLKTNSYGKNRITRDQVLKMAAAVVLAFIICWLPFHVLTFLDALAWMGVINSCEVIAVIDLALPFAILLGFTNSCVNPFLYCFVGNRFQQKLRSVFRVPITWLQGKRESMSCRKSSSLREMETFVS
# Bradykinin B2 = Bradykinin B2 (Homo sapiens, UniProt P30411)
# Prostanoid EP4 = Prostanoid EP4 (Homo sapiens, UniProt P35408)
# Adenosine A1 = Adenosine A1 (Homo sapiens, UniProt P30542)
# Serotonin 5-HT7 = Serotonin 5-HT7 (Homo sapiens, UniProt P34969)
# Purinergic P2Y = conditions: 10 µM
# [2] = target: Cholecystokinin CCK2 (CCKB) (Homo sapiens, UniProt P32239)
# Chemokines CXCR2 (IL-8B) = Chemokines CXCR2 (IL-8B) (Homo sapiens, UniProt P25025)
# Sequence of Chemokines CXCR2 (IL-8B) (P25025 whole entry): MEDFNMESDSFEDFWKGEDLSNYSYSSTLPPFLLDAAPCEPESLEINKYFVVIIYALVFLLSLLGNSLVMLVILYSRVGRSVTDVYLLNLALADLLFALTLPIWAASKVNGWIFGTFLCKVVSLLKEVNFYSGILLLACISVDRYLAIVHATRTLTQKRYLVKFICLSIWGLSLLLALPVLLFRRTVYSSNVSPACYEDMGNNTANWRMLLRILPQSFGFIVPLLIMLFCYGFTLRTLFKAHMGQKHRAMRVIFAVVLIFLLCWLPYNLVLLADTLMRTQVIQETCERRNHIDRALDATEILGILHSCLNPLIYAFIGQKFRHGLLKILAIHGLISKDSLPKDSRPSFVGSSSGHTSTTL
# [3] = target: Vasoactive intestinal peptide VPAC1 (VIP1) (Homo sapiens, UniProt P32241)
# Dopamine D2S = Dopamine D2S (Homo sapiens, UniProt P14416)
# Sequence of Dopamine D2S (P14416 1-414 isoform P14416-2): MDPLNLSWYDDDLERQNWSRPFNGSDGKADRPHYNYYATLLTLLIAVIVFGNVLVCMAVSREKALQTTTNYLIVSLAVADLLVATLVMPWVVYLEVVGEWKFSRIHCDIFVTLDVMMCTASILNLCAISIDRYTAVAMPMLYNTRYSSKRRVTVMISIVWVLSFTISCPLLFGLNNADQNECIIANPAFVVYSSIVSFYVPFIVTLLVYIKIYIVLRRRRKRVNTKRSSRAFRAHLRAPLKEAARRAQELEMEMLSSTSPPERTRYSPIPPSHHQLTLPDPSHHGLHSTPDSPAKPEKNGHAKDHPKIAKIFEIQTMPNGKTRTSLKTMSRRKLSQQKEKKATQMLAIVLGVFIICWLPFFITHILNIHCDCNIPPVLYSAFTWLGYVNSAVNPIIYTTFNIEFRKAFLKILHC
# Adenosine A3 = Adenosine A3 (Homo sapiens, UniProt P0DMS8)
# Sequence of Adenosine A3 (P0DMS8 whole entry): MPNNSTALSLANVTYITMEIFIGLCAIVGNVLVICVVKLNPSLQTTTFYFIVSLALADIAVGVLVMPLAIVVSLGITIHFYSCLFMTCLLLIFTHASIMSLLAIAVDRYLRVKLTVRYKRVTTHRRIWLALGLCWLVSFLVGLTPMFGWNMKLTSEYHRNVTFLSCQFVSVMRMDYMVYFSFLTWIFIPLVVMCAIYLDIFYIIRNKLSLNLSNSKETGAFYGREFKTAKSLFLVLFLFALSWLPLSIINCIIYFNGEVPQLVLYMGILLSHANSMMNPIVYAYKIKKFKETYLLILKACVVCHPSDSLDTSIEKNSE
# Chemokines CCR1 = Chemokines CCR1 (Homo sapiens, UniProt P32246)
# Sequence of Chemokines CCR1 (P32246 whole entry): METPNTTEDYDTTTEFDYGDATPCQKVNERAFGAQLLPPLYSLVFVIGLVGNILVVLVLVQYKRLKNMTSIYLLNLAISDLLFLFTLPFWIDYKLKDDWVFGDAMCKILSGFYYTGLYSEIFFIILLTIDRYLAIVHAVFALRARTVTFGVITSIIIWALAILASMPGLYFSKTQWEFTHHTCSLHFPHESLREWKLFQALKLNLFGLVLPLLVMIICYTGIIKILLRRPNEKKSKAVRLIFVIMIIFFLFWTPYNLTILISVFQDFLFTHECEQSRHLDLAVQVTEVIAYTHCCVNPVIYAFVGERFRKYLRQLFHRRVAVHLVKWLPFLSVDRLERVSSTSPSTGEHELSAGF
# Cannabinoid CB2 = Cannabinoid CB2 (Homo sapiens, UniProt P34972)
# Dopamine D1 = Dopamine D1 (Homo sapiens, UniProt P21728)
# ER = conditions: 10 µM
# Angiotensin-II AT1 = Angiotensin-II AT1 (Homo sapiens, UniProt P30556)
# Adrenergic beta2 = Adrenergic beta2 (Homo sapiens, UniProt P07550)
# Sequence of Adrenergic beta2 (P07550 whole entry): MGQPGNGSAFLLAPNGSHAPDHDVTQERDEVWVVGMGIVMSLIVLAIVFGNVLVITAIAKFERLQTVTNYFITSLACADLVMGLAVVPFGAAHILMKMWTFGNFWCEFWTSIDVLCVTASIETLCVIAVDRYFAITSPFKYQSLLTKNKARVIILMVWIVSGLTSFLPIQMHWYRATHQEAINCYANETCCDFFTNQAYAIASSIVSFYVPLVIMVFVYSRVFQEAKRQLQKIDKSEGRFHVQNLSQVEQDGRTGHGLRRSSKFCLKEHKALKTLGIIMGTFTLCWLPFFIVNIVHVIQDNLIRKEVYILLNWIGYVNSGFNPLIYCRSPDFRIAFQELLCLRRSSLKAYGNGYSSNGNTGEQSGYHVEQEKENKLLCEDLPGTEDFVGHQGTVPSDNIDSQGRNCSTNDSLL
# Histamine H2 = Histamine H2 (Homo sapiens, UniProt P25021)
# Serotonin 5-HT1B = conditions: 10 µM
# [4] = target: Norepinephrine transporter NET (Homo sapiens, UniProt P23975)
# Sequence of Norepinephrine transporter NET (P23975 whole entry): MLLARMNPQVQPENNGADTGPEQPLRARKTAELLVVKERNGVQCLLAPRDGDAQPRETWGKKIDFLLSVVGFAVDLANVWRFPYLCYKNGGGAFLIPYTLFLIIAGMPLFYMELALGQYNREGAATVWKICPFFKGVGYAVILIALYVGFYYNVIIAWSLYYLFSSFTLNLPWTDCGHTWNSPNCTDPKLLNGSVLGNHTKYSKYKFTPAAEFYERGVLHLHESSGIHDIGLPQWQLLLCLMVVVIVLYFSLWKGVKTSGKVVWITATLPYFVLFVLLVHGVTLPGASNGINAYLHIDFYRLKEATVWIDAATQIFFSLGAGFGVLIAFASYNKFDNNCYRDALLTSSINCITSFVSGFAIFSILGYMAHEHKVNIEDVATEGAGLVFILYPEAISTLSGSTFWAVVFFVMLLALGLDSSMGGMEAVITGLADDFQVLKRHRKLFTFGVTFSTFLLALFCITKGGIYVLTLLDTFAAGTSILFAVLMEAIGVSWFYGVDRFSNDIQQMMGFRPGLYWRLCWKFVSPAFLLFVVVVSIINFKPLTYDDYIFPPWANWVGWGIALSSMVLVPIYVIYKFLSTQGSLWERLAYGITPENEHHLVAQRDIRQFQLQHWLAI
# [5] = read-out: Percent inhibition of control specific binding
smiles,measurement,setting,value
"COc1ccc(CO[C@H]2CC[C@@]3(C)C(=CC[C@H]4[C@@H]5CC[C@H](C(C)=O)[C@@]5(C)CC[C@@H]43)C2)cc1 [AEF0117, 3β-(4-methoxybenzyloxy)pregn-5-en-20-one]",inhibition at 10 µM,Opioid delta2 (DOP); [5],-4%
same,inhibition at 10 µM,Neurokinin NK3; [5],-1%
same,inhibition at 10 µM,Endothelin ETB; [5],2%
same,Percent inhibition of control specific binding,Adrenergic alpha2,7%
same,inhibition at 10 µM,Neuropeptide Y Y1; [5],-9%
same,Percent inhibition of control specific binding,Glutamate PCP,2%
same,inhibition at 10 µM,Dopamine transporter DAT; [5],0%
same,inhibition at 10 µM,Serotonin 5-HT2A; [5],2%
same,inhibition at 10 µM,Neurotensin NTS1 (NT1); [5],-14%
same,inhibition at 10 µM,Prostanoid EP2; [5],27%
same,Percent inhibition of control specific binding,Purinergic channels P2X,-29%
same,inhibition at 10 µM,Dopamine D4.4; [5],-7%
same,inhibition at 10 µM,Neuropeptide Y Y2; [5],-22%
same,inhibition at 10 µM,Serotonin 5-HT6; [5],-2%
same,inhibition at 10 µM,Galanin GAL2; [5],-9%
same,inhibition at 10 µM,PXR; [5],7%
same,inhibition at 10 µM,Adenosine A2A; [5],-3%
same,Percent inhibition of control specific binding,Somatostatin sst,-4%
same,inhibition at 10 µM,Muscarinic M3; [5],-18%
same,inhibition at 10 µM,Muscarinic M5; [5],-5%
same,inhibition at 10 µM,Muscarinic M1; [5],-14%
same,inhibition at 10 µM,[1]; [5],-21%
same,inhibition at 10 µM,PPAR gamma; [5],7%
same,inhibition at 10 µM,Prostanoid IP (PGI2); [5],-4%
same,inhibition at 10 µM,Angiotensin-II AT2; [5],-8%
same,inhibition at 10 µM,Bradykinin B2; [5],-1%
same,inhibition at 10 µM,Prostanoid EP4; [5],10%
same,inhibition at 10 µM,Adenosine A1; [5],14%
same,inhibition at 10 µM,Serotonin 5-HT7; [5],-1%
same,Percent inhibition of control specific binding,Purinergic P2Y,16%
same,inhibition at 10 µM,[2]; [5],-35%
same,inhibition at 10 µM,Chemokines CXCR2 (IL-8B); [5],-1%
same,inhibition at 10 µM,[3]; [5],-4%
same,inhibition at 10 µM,Dopamine D2S; [5],-1%
same,inhibition at 10 µM,Adenosine A3; [5],-20%
same,inhibition at 10 µM,Chemokines CCR1; [5],5%
same,inhibition at 10 µM,Cannabinoid CB2; [5],-2%
same,inhibition at 10 µM,Dopamine D1; [5],-12%
same,Percent inhibition of control specific binding,ER,31%
same,inhibition at 10 µM,Angiotensin-II AT1; [5],7%
same,inhibition at 10 µM,Adrenergic beta2; [5],4%
same,inhibition at 10 µM,Histamine H2; [5],3%
same,Percent inhibition of control specific binding,Serotonin 5-HT1B,-15%
same,inhibition at 10 µM,[4]; [5],-5%
"CC(=O)[C@H]1CC[C@H]2[C@@H]3CC=C4C[C@@H](O)CC[C@]4(C)[C@H]3CC[C@]12C [pregnenolone, reference compound]",Percent inhibition of control specific binding,Opioid delta2 (DOP); 10 µM,9%
same,Percent inhibition of control specific binding,Neurokinin NK3; 10 µM,11%
same,Percent inhibition of control specific binding,Endothelin ETB; 10 µM,4%
same,Percent inhibition of control specific binding,Adrenergic alpha2,-2%
same,Percent inhibition of control specific binding,Neuropeptide Y Y1; 10 µM,-11%
same,Percent inhibition of control specific binding,Glutamate PCP,5%
same,Percent inhibition of control specific binding,Dopamine transporter DAT; 10 µM,-12%
same,Percent inhibition of control specific binding,Serotonin 5-HT2A; 10 µM,-1%
same,Percent inhibition of control specific binding,Neurotensin NTS1 (NT1); 10 µM,-19%
same,Percent inhibition of control specific binding,Prostanoid EP2; 10 µM,24%
same,Percent inhibition of control specific binding,Purinergic channels P2X,13%
same,Percent inhibition of control specific binding,Dopamine D4.4; 10 µM,20%
same,Percent inhibition of control specific binding,Neuropeptide Y Y2; 10 µM,-9%
same,Percent inhibition of control specific binding,Serotonin 5-HT6; 10 µM,5%
same,Percent inhibition of control specific binding,Galanin GAL2; 10 µM,1%
same,Percent inhibition of control specific binding,PXR; 10 µM,15%
same,Percent inhibition of control specific binding,Adenosine A2A; 10 µM,-1%
same,Percent inhibition of control specific binding,Somatostatin sst,-8%
same,Percent inhibition of control specific binding,Muscarinic M3; 10 µM,2%
same,Percent inhibition of control specific binding,Muscarinic M5; 10 µM,8%
same,Percent inhibition of control specific binding,Muscarinic M1; 10 µM,-14%
same,Percent inhibition of control specific binding,[1]; 10 µM,-12%
same,Percent inhibition of control specific binding,PPAR gamma; 10 µM,4%
same,Percent inhibition of control specific binding,Prostanoid IP (PGI2); 10 µM,-12%
same,Percent inhibition of control specific binding,Angiotensin-II AT2; 10 µM,-18%
same,Percent inhibition of control specific binding,Bradykinin B2; 10 µM,-9%
same,Percent inhibition of control specific binding,Prostanoid EP4; 10 µM,21%
same,Percent inhibition of control specific binding,Adenosine A1; 10 µM,-25%
same,Percent inhibition of control specific binding,Serotonin 5-HT7; 10 µM,11%
same,Percent inhibition of control specific binding,Purinergic P2Y,-3%
same,Percent inhibition of control specific binding,[2]; 10 µM,-38%
same,Percent inhibition of control specific binding,Chemokines CXCR2 (IL-8B); 10 µM,-10%
same,Percent inhibition of control specific binding,[3]; 10 µM,-10%
same,Percent inhibition of control specific binding,Dopamine D2S; 10 µM,5%
same,Percent inhibition of control specific binding,Adenosine A3; 10 µM,11%
same,Percent inhibition of control specific binding,Chemokines CCR1; 10 µM,-10%
same,Percent inhibition of control specific binding,Cannabinoid CB2; 10 µM,-19%
same,Percent inhibition of control specific binding,Dopamine D1; 10 µM,-8%
same,Percent inhibition of control specific binding,ER,26%
same,Percent inhibition of control specific binding,Angiotensin-II AT1; 10 µM,-28%
same,Percent inhibition of control specific binding,Adrenergic beta2; 10 µM,-5%
same,Percent inhibition of control specific binding,Histamine H2; 10 µM,9%
same,Percent inhibition of control specific binding,Serotonin 5-HT1B,-28%
same,Percent inhibition of control specific binding,[4]; 10 µM,-12%
